Measured values: the NIST ThermoML archive (doi:10.1016/j.tca.2012.03.027)
Numbers after ± are expanded uncertainties.

Conditions: Crystal 2; DTA

`CC12CCC(CC1=O)C2(C)C` (configuration not stated) [1,7,7-trimethylbicyclo[2.2.1]-2-heptanone] showed a Triple point temperature of 362 ± 4 K.
In the case of `CC1(C)[C@@H]2CC[C@@]1(C)C(=O)C2` [d-camphor], the Triple point temperature is reported as 367 ± 3 K.
